Test results published in patent US6818653B1, “6,7-Disubstituted -5,8-quinolinedione derivatives as an antifungal agent” (Il Jin Copper Foil Corp., priority 2002, dated 2004).
Converted amounts (≈) assume the structure as drawn. Read-outs that look alike come from different tables or passages of the source.

Columns and labels:
[1] = system: Candida tropicalis ATCC8775; test: MIC by solid medium dilution method; assay type: cell-based; conditions: Sabouraud's agar, 3 days at 30° C.; for MIC: Candida tropicalis, ATCC8775, 72 h, read-out: MIC C. tropicallis
Protocol: (§1) The minimum inhibitory concentration (MIC), which indicates the lowest concentration of the active ingredient in the growth medium, was determined by solid medium dilution method. Pathogens strains used are Candida albicans ATCC10231, Candida glabrata ATCC2001, Candida tropicalis ATCC8775, Candida parasilosis ATCC22019, Cryptococuss neoformans KCTC7223.
(§2) 4 mg of a test compound was dissolved in 2 ml of dimethylfulfoxide(DMSO) to produce solutions having a concentration of 2 mg/ml for use and serial two-fold dilution was prepared. The test medium was Sabouraud's agar. 50 μl aliquot of serial two-fold dilution was added to 1 ml of agar medium in 10×1.2 cm petri dishes to be 100, 50, 25, 12.5 6.3, 1.6, and 0.8 μg/ml of test compound concentration and the slant was prepared by tilting the petri dishes. The MIC value without containing a test compound was determined in order to test an effect of a solvent to an antifungal activity. Hyphae with a diameter of 2 mm were inoculated with 2×10^5 CFU. After the medium was cultured for 3 days at 30° C., the MIC values were determined. Control drugs were fluconazole and ketoconazole.

[2] = system: Cryptococuss neoformans KCTC7223; test: MIC by solid medium dilution method; assay type: cell-based; conditions: Sabouraud's agar, 3 days at 30° C.; for MIC: Cryptococcus neoformans, KCTC7223, 72 h
Protocol: as §1, §2

[3] = system: Candida albicans ATCC10231; test: MIC by solid medium dilution method; assay type: cell-based; conditions: Sabouraud's agar, 3 days at 30° C.; for MIC: Candida albicans, ATCC10231, 72 h
Protocol: as §1, §2

[4] = system: Candida glabrata ATCC2001; test: MIC by solid medium dilution method; assay type: cell-based; conditions: Sabouraud's agar, 3 days at 30° C.; for MIC: Nakaseomyces glabratus, ATCC2001, 72 h
Protocol: as §1, §2

[5] = system: Candida parasilosis ATCC22019; test: MIC by solid medium dilution method; assay type: cell-based; conditions: Sabouraud's agar, 3 days at 30° C.; for MIC: 72 h, read-out: MIC C. parapsilosis
Protocol: as §1, §2

[6] = system: C. albicans; test: ED50 in rats infected with C. albicans via tail vein; assay type: in vivo, rat; conditions: for ED50: Candida albicans, read-out: ED50 ± SD (n = 5)
Protocol: C. albicans (1×10^7) isolated was inoculated to Sabouraud's agar, suspended in a physiological saline solution, and injected into tail vein of a rat. Strains to kill a rat within 48 hours were selected. C. albicans (2×10^6 which is concentration to kill a rat within 48 hours) suspended in a physiological saline solution was injected and infected into tail veins of 125 rats. Each concentration (10, 2, 0.5, 0.1, 0.025 mg/kg) of the compounds of table 3 was administered to each 10 rats. After infecting with Candida strain, each compound was administered to each 10 rats. Fluconazol as a control drug was also administered with 10, 2, 0.5 and 0.1 mg/kg of concentrations. A physiological saline solution containing 0.2% tween 20 was administered as a control group.

[7] = rat infected with C. albicans 2×10^6 via tail vein

## CCCSC1=C(Cl)C(=O)c2ncccc2C1=O [compound 14, 6-n-propylmercapto-7-chloro-5,8-quinolindion]
[1]
  MIC: 50 µg/mL (≈ 187 µM)
[2]
  MIC: 3.2 µg/mL (≈ 12 µM)
[3]
  MIC: 12.5 µg/mL (≈ 46.7 µM)
[4]
  MIC: 50 µg/mL (≈ 187 µM)
[5]
  MIC: 12.5 µg/mL (≈ 46.7 µM)

## CCSC1=C(Cl)C(=O)c2ncccc2C1=O [compound 13, 6-n-ethylmercapto-7-chloro-5,8-quinolindion]
[1]
  MIC C. tropicallis: 100 µg/mL (≈ 394 µM)
[2]
  MIC C. neoformans: 6.3 µg/mL (≈ 24.8 µM)
[3]
  MIC C. albicans: 12.5 µg/mL (≈ 49.3 µM)
[4]
  MIC C. glabrata: 50 µg/mL (≈ 197 µM)
[5]
  MIC C. parapsilosis: 3.2 µg/mL (≈ 12.6 µM)

## CCCCCCCCSC1=C(Cl)C(=O)c2ncccc2C1=O [compound 19, 6-n-octylmercapto-7-chloro-5,8-quinolindion]
[1]
  MIC: 12.5 µg/mL (≈ 37 µM)
[2]
  MIC: 12.5 µg/mL (≈ 37 µM)
[3]
  MIC: 12.5 µg/mL (≈ 37 µM)
[4]
  MIC: 25 µg/mL (≈ 74 µM)
[5]
  MIC: 3.2 µg/mL (≈ 9.47 µM)

## OC(Cn1cncn1)(Cn1cncn1)c1ccc(F)cc1F [Fluconazole, fluconazole, reference compound]
[6]; [7]
  ED50: 6 mg/kg
[1]
  MIC: 100 µg/mL (≈ 327 µM)
[2]
  MIC: 25 µg/mL (≈ 81.6 µM)
[3]
  MIC: 25 µg/mL (≈ 81.6 µM)
[4]
  MIC: 25 µg/mL (≈ 81.6 µM)
[5]
  MIC: 12.5 µg/mL (≈ 40.8 µM)

## CCCCCCCSC1=C(Cl)C(=O)c2ncccc2C1=O [compound 18, 6-n-heptylmercapto-7-chloro-5,8-quinolindion]
[1]
  MIC: 12.5 µg/mL (≈ 38.6 µM)
[2]
  MIC: 12.5 µg/mL (≈ 38.6 µM)
[3]
  MIC: 6.3 µg/mL (≈ 19.5 µM)
[4]
  MIC: 50 µg/mL (≈ 154 µM)
[5]
  MIC: 6.3 µg/mL (≈ 19.5 µM)

## CCCCCCCCCSC1=C(Cl)C(=O)c2ncccc2C1=O [compound 20, 6-n-nonylmercapto-7-chloro-5,8-quinolindion]
[1]
  MIC: 6.3 µg/mL (≈ 17.9 µM)
[2]
  MIC: 25 µg/mL (≈ 71 µM)
[3]
  MIC: 50 µg/mL (≈ 142 µM)
[4]
  MIC: 50 µg/mL (≈ 142 µM)
[5]
  MIC: 25 µg/mL (≈ 71 µM)

## CCCCSC1=C(Cl)C(=O)c2ncccc2C1=O [compound 15, 6-n-butylmercapto-7-chloro-5,8-quinolindion]
[1]
  MIC: 100 µg/mL (≈ 355 µM)
[2]
  MIC: 12.5 µg/mL (≈ 44.4 µM)
[3]
  MIC: 25 µg/mL (≈ 88.7 µM)
[4]
  MIC: 12.5 µg/mL (≈ 44.4 µM)
[5]
  MIC: 25 µg/mL (≈ 88.7 µM)

## 6-n-hecxylmercapto-7-chloro-5,8-quinolindion [compound 17]
[1]
  MIC C. tropicallis: 50 µg/mL
[2]
  MIC C. neoformans: 12.5 µg/mL
[3]
  MIC C. albicans: 25 µg/mL
[4]
  MIC C. glabrata: 50 µg/mL
[5]
  MIC C. parapsilosis: 25 µg/mL

## O=C1C(Nc2ccc(Cl)cc2)=C(Br)C(=O)c2ncccc21 [Compound No. 1, 6-[(N-4-chlorophenyl)amino]-7-bromo-5,8-quinolindion]
[6]
  ED50: 0.06 mg/kg
[1]
  MIC: 12.5 µg/mL (≈ 34.4 µM)
[2]
  MIC: 12.5 µg/mL (≈ 34.4 µM)
[3]
  MIC: 6.3 µg/mL (≈ 17.3 µM)
[4]
  MIC: 12.5 µg/mL (≈ 34.4 µM)
[5]
  MIC: 25 µg/mL (≈ 68.8 µM)

## CCCCCSC1=C(Cl)C(=O)c2ncccc2C1=O [compound 16, 6-n-pentylmercapto-7-chloro-5,8-quinolindion]
[1]
  MIC: 50 µg/mL (≈ 169 µM)
[2]
  MIC: 25 µg/mL (≈ 84.5 µM)
[3]
  MIC: 3.2 µg/mL (≈ 10.8 µM)
[4]
  MIC: 12.5 µg/mL (≈ 42.3 µM)
[5]
  MIC: 6.3 µg/mL (≈ 21.3 µM)

## O=C1C(Nc2ccc(Br)cc2)=C(Br)C(=O)c2ncccc21 [Compound No. 3, 6-[(N-4-bromophenyl)amino]-7-bromo-5,8-quinolindion]
[6]
  ED50: 0.06 mg/kg
[1]
  MIC: 12.5 µg/mL (≈ 30.6 µM)
[2]
  MIC: 6.3 µg/mL (≈ 15.4 µM)
[3]
  MIC: 6.3 µg/mL (≈ 15.4 µM)
[4]
  MIC: 6.3 µg/mL (≈ 15.4 µM)
[5]
  MIC: 25 µg/mL (≈ 61.3 µM)

## CSC1=C(Nc2ccc(I)cc2)C(=O)c2cccnc2C1=O [compound 7, 6-[(N-4-iodophenyl)amino]-7-methylmercapto-5,8-quinolindion]
[1]
  MIC: 3.2 µg/mL (≈ 7.58 µM)
[2]
  MIC: 3.2 µg/mL (≈ 7.58 µM)
[3]
  MIC: 6.3 µg/mL (≈ 14.9 µM)
[4]
  MIC: 3.2 µg/mL (≈ 7.58 µM)
[5]
  MIC: 25 µg/mL (≈ 59.2 µM)

## N#CSC1=C(Nc2ccc(Cl)cc2)C(=O)c2cccnc2C1=O [compound 10, 6-[(N-4-chlorophenyl)amino]-7-thiocyano-5,8-quinolindion]
[1]
  MIC: 12.5 µg/mL (≈ 36.6 µM)
[2]
  MIC: 6.3 µg/mL (≈ 18.4 µM)
[3]
  MIC: 12.5 µg/mL (≈ 36.6 µM)
[4]
  MIC: 12.5 µg/mL (≈ 36.6 µM)
[5]
  MIC: 100 µg/mL (≈ 293 µM)

## O=C1C(Nc2cc(Cl)cc(Cl)c2)=C(Cl)C(=O)c2ncccc21 [Compound No. 2, 6-[(N-3,5-dichlorophenyl)amino]-7-chloro-5,8-quinolindion]
[6]; [7]
  ED50 ± SD (n = 5): 0.07 mg/kg
[1]
  MIC C. tropicallis: 25.0 µg/mL (≈ 70.7 µM)
[2]
  MIC C. neoformans: 12.5 µg/mL (≈ 35.4 µM)
[3]
  MIC C. albicans: 12.5 µg/mL (≈ 35.4 µM)
[4]
  MIC C. glabrata: 12.5 µg/mL (≈ 35.4 µM)
[5]
  MIC C. parapsilosis: 6.3 µg/mL (≈ 17.8 µM)

## CC(=O)c1ccc(NC2=C(Cl)C(=O)c3ncccc3C2=O)cc1 [Compound No. 4, 6-[(N-4-acetophenyl)amino]-7-chloro-5,8-quinolindion]
[1]
  MIC C. tropicallis: 3.2 µg/mL (≈ 9.79 µM)
[2]
  MIC C. neoformans: 12.5 µg/mL (≈ 38.3 µM)
[3]
  MIC C. albicans: 1.6 µg/mL (≈ 4.9 µM)
[4]
  MIC C. glabrata: 3.2 µg/mL (≈ 9.79 µM)
[5]
  MIC C. parapsilosis: 6.3 µg/mL (≈ 19.3 µM)

## CSC1=C(Nc2ccc(Cl)cc2)C(=O)c2cccnc2C1=O [compound 6, 6-[(N-4-chlorophenyl)amino]-7-methylmercapto-5,8-quinolindion]
[1]
  MIC: < 0.8 µg/mL
[2]
  MIC: 12.5 µg/mL (≈ 37.8 µM)
[3]
  MIC: 12.5 µg/mL (≈ 37.8 µM)
[4]
  MIC: 6.3 µg/mL (≈ 19 µM)
[5]
  MIC: 25 µg/mL (≈ 75.6 µM)

## CC(=O)c1ccc(NC2=C(SC#N)C(=O)c3ncccc3C2=O)cc1 [compound 11, 6-[(N-4-acetophenyl)amino]-7-thiocyano-5,8-quinolindion]
[1]
  MIC C. tropicallis: 3.2 µg/mL (≈ 9.16 µM)
[2]
  MIC C. neoformans: <0.8 µg/mL
[3]
  MIC C. albicans: 6.3 µg/mL (≈ 18 µM)
[4]
  MIC C. glabrata: 25 µg/mL (≈ 71.6 µM)
[5]
  MIC C. parapsilosis: 3.2 µg/mL (≈ 9.16 µM)

## CC(=O)N1CCN(c2ccc(OCC3COC(Cn4ccnc4)(c4ccc(Cl)cc4Cl)O3)cc2)CC1 (stereo not drawn) [Ketoconazole, ketoconazole, reference compound]
[1]
  MIC: 12.5 µg/mL (≈ 23.5 µM)
[2]
  MIC: 12.5 µg/mL (≈ 23.5 µM)
[3]
  MIC: 12.5 µg/mL (≈ 23.5 µM)
[4]
  MIC: 12.5 µg/mL (≈ 23.5 µM)
[5]
  MIC: 12.5 µg/mL (≈ 23.5 µM)

## N#CSC1=C(Nc2ccc(I)cc2)C(=O)c2cccnc2C1=O [compound 8, 6-[(N-4-iodophenyl)amino]-7-thiocyano-5,8-quinolindion]
[1]
  MIC: 12.5 µg/mL (≈ 28.9 µM)
[2]
  MIC: 12.5 µg/mL (≈ 28.9 µM)
[3]
  MIC: 12.5 µg/mL (≈ 28.9 µM)
[4]
  MIC: 12.5 µg/mL (≈ 28.9 µM)
[5]
  MIC: 100 µg/mL (≈ 231 µM)

## N#CSC1=C(Nc2ccc(Br)cc2)C(=O)c2cccnc2C1=O [compound 9, 6-[(N-4-bromophenyl)amino]-7-thiocyano-5,8-quinolindion]
[1]
  MIC: < 0.8 µg/mL
[2]
  MIC: 3.2 µg/mL (≈ 8.29 µM)
[3]
  MIC: < 0.8 µg/mL
[4]
  MIC: 6.3 µg/mL (≈ 16.3 µM)
[5]
  MIC: < 0.8 µg/mL

## CSC1=C(Nc2ccc(F)c(F)c2F)C(=O)c2cccnc2C1=O [compound 5, 6-[(N-2,3,4-trifulorophenyl)amino]-7-methylmercapto-5,8-quinolindion]
[1]
  MIC C. tropicallis: 3.2 µg/mL (≈ 9.13 µM)
[2]
  MIC C. neoformans: 6.3 µg/mL (≈ 18 µM)
[3]
  MIC C. albicans: 1.6 µg/mL (≈ 4.57 µM)
[4]
  MIC C. glabrata: 3.2 µg/mL (≈ 9.13 µM)
[5]
  MIC C. parapsilosis: 25.0 µg/mL (≈ 71.4 µM)

## N#CSC1=C(Nc2cc(F)cc(F)c2)C(=O)c2cccnc2C1=O [compound 12, 6-[(N-3,5-difulorophenyl)amino]-7-thiocyano-5,8-quinolindion]
[1]
  MIC C. tropicallis: 3.2 µg/mL (≈ 9.32 µM)
[2]
  MIC C. neoformans: <0.8 µg/mL
[3]
  MIC C. albicans: 12.5 µg/mL (≈ 36.4 µM)
[4]
  MIC C. glabrata: 12.5 µg/mL (≈ 36.4 µM)
[5]
  MIC C. parapsilosis: 1.6 µg/mL (≈ 4.66 µM)
